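Five concentrations, 48 hours, 96-well plates. The concentration for 50% growth inhibition is given as GI50.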 Calls of active or inactive are those of the source. Cut-off read from the data, not from the text of the source: active = GI50 up to about 1.1 µM and inactive = higher.
Tests used:
Test in all cases: inhibition of tumour cell growth, NCI panel, 48 h
SNB-19 = test system: SNB-19
SW-620 = test system: SW-620
786-0 = test system: 786-0
SK-MEL-2 = test system: SK-MEL-2
SK-MEL-28 = test system: SK-MEL-28
IGROV-1 = test system: IGROV-1
HOP-62 = test system: HOP-62
SNB-75 = test system: SNB-75
Malme-3M = test system: Malme-3M
HL-60 = test system: HL-60
HCT-116 = test system: HCT-116
NCI-H460 = test system: NCI-H460
SK-MEL-5 = test system: SK-MEL-5
NCI-H23 = test system: NCI-H23
CCRF-CEM = test system: CCRF-CEM
A498 = test system: A498
LOX IMVI = test system: LOX IMVI
ACHN = test system: ACHN
HOP-92 = test system: HOP-92
NCI-H522 = test system: NCI-H522

| SMILES | GI50 (SNB-19) | GI50 (SW-620) | GI50 (786-0) | GI50 (SK-MEL-2) | GI50 (SK-MEL-28) | GI50 (IGROV-1) | GI50 (HOP-62) | GI50 (SNB-75) | GI50 (Malme-3M) | GI50 (HL-60) | GI50 (HCT-116) | GI50 (NCI-H460) | GI50 (SK-MEL-5) | GI50 (NCI-H23) | GI50 (CCRF-CEM) | GI50 (A498) | GI50 (LOX IMVI) | GI50 (ACHN) | GI50 (HOP-92) | GI50 (NCI-H522) |
| --- | --- | --- | --- | --- | --- | --- | --- | --- | --- | --- | --- | --- | --- | --- | --- | --- | --- | --- | --- | --- |
| CC(=O)NC1=C(NC(C)(C)C)C(=O)c2ccccc2C1=O | 43.2 µM (inactive) | 14.1 µM (inactive) | 3.4 µM (inactive) | 20.6 µM (inactive) | 25.4 µM (inactive) | 30.2 µM (inactive) | 49.4 µM (inactive) | 13.6 µM (inactive) | 19.5 µM (inactive) | 2.23 µM (inactive) | 28.7 µM (inactive) | 19.2 µM (inactive) | 18.2 µM (inactive) | 18.7 µM (inactive) | 2.35 µM (inactive) | 23.1 µM (inactive) | 16.7 µM (inactive) | 86.1 µM (inactive) | 19.1 µM (inactive) | – |
| CSc1nn(C)cc2ncnc1-2 | > 100 µM (inactive) | > 100 µM (inactive) | > 100 µM (inactive) | > 100 µM (inactive) | > 100 µM (inactive) | > 100 µM (inactive) | > 100 µM (inactive) | 0.206 µM (active) | – | > 100 µM (inactive) | > 100 µM (inactive) | > 100 µM (inactive) | > 100 µM (inactive) | > 100 µM (inactive) | > 100 µM (inactive) | > 100 µM (inactive) | – | > 100 µM (inactive) | – | – |
| COc1c(Cl)nc2ccccc2c1N=[N+]=[N-] | > 100 µM (inactive) | > 100 µM (inactive) | > 100 µM (inactive) | – | > 100 µM (inactive) | 49.5 µM (inactive) | 39.7 µM (inactive) | 63 µM (inactive) | > 100 µM (inactive) | 53.3 µM (inactive) | 52.7 µM (inactive) | > 100 µM (inactive) | 40.5 µM (inactive) | 92.7 µM (inactive) | 88.9 µM (inactive) | 12.4 µM (inactive) | 48.6 µM (inactive) | 43.4 µM (inactive) | 22.2 µM (inactive) | – |
| COc1ccc(C(=O)N2CCc3c([nH]c4ccccc34)C2C(=O)O)o1 (centres undefined) | > 10 µM (inactive) | > 10 µM (inactive) | > 10 µM (inactive) | – | > 10 µM (inactive) | > 10 µM (inactive) | > 10 µM (inactive) | > 10 µM (inactive) | > 10 µM (inactive) | > 10 µM (inactive) | > 10 µM (inactive) | – | > 10 µM (inactive) | – | > 10 µM (inactive) | > 10 µM (inactive) | – | > 10 µM (inactive) | > 10 µM (inactive) | – |
| CC(C)[Si](OC1=C(C(=O)N(C)c2cccc(Cl)c2)CCCC1)(C(C)C)C(C)C | 16.6 µM (inactive) | 13.6 µM (inactive) | 18.3 µM (inactive) | 15.5 µM (inactive) | 13.6 µM (inactive) | 17.2 µM (inactive) | 17.6 µM (inactive) | 10.4 µM (inactive) | 11.7 µM (inactive) | 5.61 µM (inactive) | – | 14.1 µM (inactive) | 14.1 µM (inactive) | 11.7 µM (inactive) | 29.7 µM (inactive) | 16.9 µM (inactive) | 17.3 µM (inactive) | 16.2 µM (inactive) | 12.4 µM (inactive) | – |
| COc1cc(OC)c([C@@H]2OC(=O)C3C2C(=O)O[C@H]3c2cc(OC)c(OC)cc2OC)cc1OC (some centres undefined) | > 100 µM (inactive) | > 10 µM (inactive) | > 100 µM (inactive) | > 100 µM (inactive) | > 100 µM (inactive) | > 10 µM (inactive) | > 100 µM (inactive) | > 100 µM (inactive) | – | 88.9 µM (inactive) | > 100 µM (inactive) | > 100 µM (inactive) | – | > 100 µM (inactive) | > 100 µM (inactive) | > 100 µM (inactive) | – | > 100 µM (inactive) | > 10 µM (inactive) | – |
| Brc1ccc2c(-c3csc(-c4c[nH]c5cc(Br)ccc45)n3)c[nH]c2c1 | 21.3 µM (inactive) | 16 µM (inactive) | 22 µM (inactive) | > 83 µM (inactive) | 46.6 µM (inactive) | 17 µM (inactive) | 37.2 µM (inactive) | 25.1 µM (inactive) | 28.4 µM (inactive) | 5.69 µM (inactive) | 14.5 µM (inactive) | 18.9 µM (inactive) | 42.2 µM (inactive) | 18.5 µM (inactive) | 10.2 µM (inactive) | 37.1 µM (inactive) | 20.9 µM (inactive) | 44 µM (inactive) | 31.1 µM (inactive) | – |
| COc1ccc(/C=N/NC(=O)c2ccccc2Nc2ccccc2C(=O)N/N=C/c2ccc(OC)cc2)cc1 | > 100 µM (inactive) | > 100 µM (inactive) | > 100 µM (inactive) | > 100 µM (inactive) | > 100 µM (inactive) | > 100 µM (inactive) | > 100 µM (inactive) | > 100 µM (inactive) | > 100 µM (inactive) | – | > 100 µM (inactive) | > 100 µM (inactive) | > 100 µM (inactive) | > 100 µM (inactive) | > 100 µM (inactive) | > 100 µM (inactive) | > 100 µM (inactive) | > 100 µM (inactive) | > 100 µM (inactive) | – |
| COc1cc([N+](=O)[O-])ccc1NC(=O)C(F)(F)F | > 100 µM (inactive) | > 100 µM (inactive) | > 100 µM (inactive) | > 100 µM (inactive) | > 100 µM (inactive) | > 100 µM (inactive) | > 100 µM (inactive) | > 100 µM (inactive) | – | > 100 µM (inactive) | > 100 µM (inactive) | > 100 µM (inactive) | > 100 µM (inactive) | > 100 µM (inactive) | > 100 µM (inactive) | > 100 µM (inactive) | > 100 µM (inactive) | > 100 µM (inactive) | – | 80.7 µM (inactive) |
| C=CCCC(OCOCCOC)c1cc(C)c(O[Si](C)(C)C(C)(C)C)c(C)c1 (centres undefined) | 6.32 µM (inactive) | 16 µM (inactive) | 14.9 µM (inactive) | 15.8 µM (inactive) | 19.5 µM (inactive) | 19.9 µM (inactive) | 18.7 µM (inactive) | 15.6 µM (inactive) | 19.6 µM (inactive) | 3.28 µM (inactive) | – | 13.9 µM (inactive) | 10.1 µM (inactive) | 14.5 µM (inactive) | 13.3 µM (inactive) | 22.8 µM (inactive) | 13 µM (inactive) | 13.2 µM (inactive) | – | 11.8 µM (inactive) |
| CN(C)CCC1(C2=CCCC2)CC/C(=C\c2ccccc2Cl)C1=O (centres undefined) | 14.3 µM (inactive) | 11.9 µM (inactive) | 12.6 µM (inactive) | 13.5 µM (inactive) | 13.1 µM (inactive) | 19.8 µM (inactive) | – | – | 14.5 µM (inactive) | 4.41 µM (inactive) | 8.41 µM (inactive) | 13.2 µM (inactive) | 12.8 µM (inactive) | 15.2 µM (inactive) | 9.25 µM (inactive) | 14.1 µM (inactive) | – | 17.3 µM (inactive) | 12.4 µM (inactive) | – |
| CCCC(=O)Oc1cc(OC(=O)CCC)c2c(C)cc(=O)oc2c1 | > 100 µM (inactive) | 49.9 µM (inactive) | 82.6 µM (inactive) | > 100 µM (inactive) | > 100 µM (inactive) | 44.1 µM (inactive) | > 100 µM (inactive) | 52.4 µM (inactive) | 76.6 µM (inactive) | – | 50.1 µM (inactive) | – | 67.9 µM (inactive) | 71 µM (inactive) | 31.9 µM (inactive) | 46.1 µM (inactive) | 40.1 µM (inactive) | > 100 µM (inactive) | 19.6 µM (inactive) | – |
| COC(=O)CP1(=O)OC2C(C3CCC2(C)C3(C)C)N1c1cc(C(F)(F)F)cc(C(F)(F)F)c1 (centres undefined) | 32.7 µM (inactive) | 24.1 µM (inactive) | 18.2 µM (inactive) | 20.9 µM (inactive) | 42.9 µM (inactive) | 45.7 µM (inactive) | 31.2 µM (inactive) | 15.7 µM (inactive) | 17.3 µM (inactive) | – | 12.6 µM (inactive) | 22.2 µM (inactive) | 36.3 µM (inactive) | 26.6 µM (inactive) | – | > 100 µM (inactive) | 22.4 µM (inactive) | > 100 µM (inactive) | – | – |
| COc1ccc(/C(Cl)=C(\C=O)c2ccc(Cl)cc2)cc1OC | 6.73 µM (inactive) | 3.75 µM (inactive) | – | 3.71 µM (inactive) | – | 8.89 µM (inactive) | 15.9 µM (inactive) | 3.85 µM (inactive) | 34.9 µM (inactive) | 2.55 µM (inactive) | 4.33 µM (inactive) | 3.54 µM (inactive) | 9.25 µM (inactive) | 3.01 µM (inactive) | 2.98 µM (inactive) | 23.7 µM (inactive) | 3.45 µM (inactive) | 3.18 µM (inactive) | – | 2.47 µM (inactive) |
| COc1ccc(CCCNC(=O)Cc2ccccc2CO)cc1OC | > 100 µM (inactive) | > 100 µM (inactive) | > 100 µM (inactive) | > 100 µM (inactive) | > 100 µM (inactive) | > 100 µM (inactive) | > 100 µM (inactive) | > 100 µM (inactive) | > 100 µM (inactive) | > 100 µM (inactive) | > 100 µM (inactive) | > 100 µM (inactive) | > 100 µM (inactive) | > 100 µM (inactive) | > 100 µM (inactive) | > 100 µM (inactive) | > 100 µM (inactive) | > 100 µM (inactive) | > 100 µM (inactive) | – |
| CN(Cc1cnc2c(N)nc(N)nc2n1)c1ccc(Cl)cc1 | 33.3 µM (inactive) | > 100 µM (inactive) | – | 29 µM (inactive) | – | 13.7 µM (inactive) | 39.3 µM (inactive) | 12.5 µM (inactive) | > 100 µM (inactive) | > 100 µM (inactive) | – | 42.5 µM (inactive) | > 100 µM (inactive) | 34 µM (inactive) | > 100 µM (inactive) | 31.7 µM (inactive) | – | 26.6 µM (inactive) | – | – |

From ChEMBL document CHEMBL1201862, “PubChem BioAssay data set” (2004)
